The test system of this test is Panc-02 cells. Conditions: concentration used as equivalent CB dose. The method, then: Panc-02 cells or NIT-cells were seeded in 96-well plates. Cells were treated with various miR or CB-loaded SLNs formulations. TCA was used to fix the cells after treatment. The wells were then stained with sulforhodamine B (SRB) and rapidly rinsed with acetic acid. Following air drying. Tris base was added to each well, and the plates were examined using an ELISA reader. Cell viability (%)=(The absorbance value of treated cells)(The absorbance value of untreated cells)×100

Consider `Cc1cc2c(C(N)=O)cccc2n1-c1nc2c(c(NCc3ccccc3)n1)COCC2` [CB, CB-5083], for which the IC30 turned out to be 0.21 µM.

As a reminder, the IC30 is the concentration at which the effect reaches the 30% level.

For the origin of these results see patent publication US12653903B2, “Nanoparticle and use thereof for the combinatorial therapy of endoplasmic reticulum stress inducer and immunotherapeutic to tumors and immune cells” (National Yang Ming Chiao Tung University, priority 2023, dated 2026).
